Test results: US20230151432A1, “KIF18A INHIBITORS FOR TREATMENT OF NEOPLASTIC DISEASES” (AMGEN INC., priority 2020, published 2023)

Tests used:
[1] = molecular target: T1, mouse KIF18A (residues 1-467) (Mus musculus, UniProt Q91WD7); experiment: KIF18A MT-ATPase motor activity, ADP-Glo luminescence assay (Example 19); format: biochemical; details: mouse KIF18A 4 nM, 30 μM ATP; read-out: IC50, KIF18A motor activity (MT-ATPase)
T1 construct: mouse KIF18A (residues 1-467, 4 nM); made in house
Experimental: A trio of KIF18A inhibitors (Compound C9, Compound C11, and Compound C12) were synthesized and tested in vitro for KIF18A inhibitory activity. […] The values represent mean t SEM from three independent experiments. […] As in vivo studies in mice were planned, the mouse KIF18A inhibitory effects of Compound C9 and C12 were assayed.
KIF18A compounds C9, C11, C12 were 2-fold serially diluted over a 22-point concentration range in DMSO using 384-well plate (Corning). Recombinant truncated kinesin motor proteins (human KIF18A (residues 1-467, 4 nM), mouse KIF18A (residues 1-467, 4 nM)) were expressed and purified. ADP-Glo luminescence assay (Promega) was used to measure the MT-ATPase motor activity. Porcine brain MTs were procured from Cytoskeleton Inc. Compounds were pre-incubated for <30 min in reaction buffer (15 mM Tris, pH 7.5, 10 mM MgCl2, 0.01% Pluronic F-68, 2% DMSO, 1 μM paclitaxel, 30 μg/mL MTs) with motor proteins at concentrations indicated above, 30 μM ATP was added to initiate the enzymatic reaction for 15 min at room temperature (RT). ADP-Glo reagents were added according to manufactures protocol, the luminescence intensity proportional to ADP present was measured using an EnVision plate reader (Perkin Elmer). Raw luminescence signal data was normalized to POC (percentage of positive control) and then Activity (%) was computed [POC=100×(sample signal−negative control signal)+(positive control signal−negative control signal). Activity (%)=POC−100]. The positive control (enzyme+substrate) and negative control (substrate alone) had equivalent concentrations of DMSO. Curve-fitting and IC50 values were determined by 4-parameter non-linear regression equation (variable slope) using GraphPad Prism 7.05 (GraphPad Software).

[2] = Tolerability (body weight, blood counts) in tumor-bearing nude mice; format: in vivo, mouse; details: 18 days
Experimental: Female athymic nude mice were injected with 5×10^6 cells in 0.1 mL subcutaneously in the right flank. After tumors were established (average tumor volume of 150 mm^3), animals were randomized into 4 treatment groups (vehicle alone, KIF18A inhibitor at 10, 30, or 100 mg/kg) with 10 animals per group and treated orally once per day (PO, QD) starting on day 25 post-tumor implantation. Tumor measurement was calculated from the length, width and height of tumors measured with a PRO-MAX electronic digital caliper (Japan Micrometer Mfg. Co. LTD). The tumor volume was calculated as [L×W×H] and expressed in mm^3. Tumor volume and animal body weight measurements were determined twice per week (study start day 25, study end day 45). A single mouse was removed from the study (KIF18A inhibitor 30 mg/kg group) due to abdominal distention, a finding likely unrelated to compound.
Data was plotted using GraphPad Prism software (V7.0.4), tumor volume and body weight data are expressed as means plus or minus standard error of the mean and plotted as a function of time. Statistical significance of observed differences between growth curves were calculated using SLACR package (v.1.0.3). Statistical significance for tumor regressions were performed by paired Student's t-Test on the initial and final tumor volumes with significant tumor regression p-values (***p≤0.0001) for all three KIF18A inhibitor treatment groups. KIF18A inhibitor dose 10 mg/kg (81% regression, 5 of 10 tumor-free), 30 mg/kg (98% regression, 8 of 9 tumor-free), and 100 mg/kg (97% regression, 7 of 10 tumor-free).
(§1) Female athymic nude mice were injected with 5×10^6 OVCAR-8 cells in 0.1 mL subcutaneously in the right flank. […] Tumor volume and animal body weight measurements were determined twice per week (study start day 25, study end day 47). Tumor measurements, formulas, and regression analysis as described above for FIGS. 5A-5B. Data was plotted using GraphPad Prism software (V7.0.4), tumor volume and body weight data are expressed as means plus or minus standard error of the mean and plotted as a function of time. Statistical significance of observed differences between growth curves were calculated using SLACR package (v.1.0.3).
Data was graphed using GraphPad Prism 7.05.
Tumor volume and body weight assessment performed as described above. After the final dose on day 36, plasma pharmacokinetic analysis was performed as described above. All data analysis was performed as described above.
Animals were dosed IP daily with vehicle alone, C9 (50 or 100 mg/kg), or C12 (25 or 50 mg/kg). […] Tumor volume and body weight assessment performed as described above. After the final dose on day 46, plasma pharmacokinetic analysis was performed as described above except blood was drawn by retro-orbital bleed method.

[3] = test system: OVCAR-8 NCI/ADR-RES cells; experiment: Nuclear count assay in multidrug resistant cells, with or without P-gp inhibitor; format: cell-based, human; details: OVCAR-8 NCI-ADR RES subline, Count POC (FIG. 3E)
Experimental: Compound was added to the cells with a final volume of 200 μL in complete media containing 0.5% DMSO.
The plates were sealed and incubated for 1 hour at room temperature in the dark. Cells were stored at 4° C. in the dark until data acquisition. […] The Total Valid Object Count was represented as a Count POC (Percentage of DMSO Control) using the following formula:
Briefly, OVCAR-8 cells were seeded in duplicate in a Corning 96-well Flat Clear Bottom Black Polystyrene plates (Corning, N.Y.) in 100 μL of appropriate complete media at the appropriate density and grown for 24 hours. […] After 4 days (96 hours) of treatment, the cells were fixed by removing 100 μL of complete media from each well and replacing it with 100 μL of 2×formaldehyde (final 4%) and incubating the plates for 15 minutes at room temperature. […] The plates were sealed and incubated for 1 hour at room temperature in the dark. Cells were stored at 4° C. in the dark until data acquisition. […] The Total Valid Object Count was represented as a Count POC (Percentage of DMSO Control) using the following formula:
Count POC=(Total Valid Object Count in treated well)[…](Total Valid Object Count in DMSO treated wells)×100
Compound concentration and Count POC values were plotted using GraphPad Prism software (V7.0.4) and curve-fitting was performed with 4-parameter equation (variable slope). The concentration-response curves and standard deviation represent two independent experiments run in duplicate.

[4] = test system: human OVCAR-8 HGSOC xenograft model (TP53MUT, BRCA1silenced); experiment: OVCAR-8 xenograft efficacy study, oral dosing (Example 4); format: in vivo, mouse
Experimental: as §1

[5] = OVCAR-3 study, C9 100 mg/kg, C12 25 mg/kg IP daily

T1 sequence (Q91WD7 1-467): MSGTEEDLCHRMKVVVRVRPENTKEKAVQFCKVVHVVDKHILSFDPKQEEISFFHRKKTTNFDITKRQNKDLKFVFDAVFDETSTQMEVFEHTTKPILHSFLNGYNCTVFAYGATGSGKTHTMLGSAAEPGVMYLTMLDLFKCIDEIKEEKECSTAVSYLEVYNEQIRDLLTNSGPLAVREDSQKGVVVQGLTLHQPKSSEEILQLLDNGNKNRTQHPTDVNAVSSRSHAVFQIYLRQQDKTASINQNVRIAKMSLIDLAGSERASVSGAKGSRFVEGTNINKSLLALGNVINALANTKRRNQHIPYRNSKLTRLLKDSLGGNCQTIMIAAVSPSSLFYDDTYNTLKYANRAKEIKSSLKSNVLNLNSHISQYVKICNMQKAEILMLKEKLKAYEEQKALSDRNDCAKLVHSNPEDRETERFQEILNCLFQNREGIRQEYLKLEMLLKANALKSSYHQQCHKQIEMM
T1 sequence (P02550 whole entry partner, the tested form may be a part): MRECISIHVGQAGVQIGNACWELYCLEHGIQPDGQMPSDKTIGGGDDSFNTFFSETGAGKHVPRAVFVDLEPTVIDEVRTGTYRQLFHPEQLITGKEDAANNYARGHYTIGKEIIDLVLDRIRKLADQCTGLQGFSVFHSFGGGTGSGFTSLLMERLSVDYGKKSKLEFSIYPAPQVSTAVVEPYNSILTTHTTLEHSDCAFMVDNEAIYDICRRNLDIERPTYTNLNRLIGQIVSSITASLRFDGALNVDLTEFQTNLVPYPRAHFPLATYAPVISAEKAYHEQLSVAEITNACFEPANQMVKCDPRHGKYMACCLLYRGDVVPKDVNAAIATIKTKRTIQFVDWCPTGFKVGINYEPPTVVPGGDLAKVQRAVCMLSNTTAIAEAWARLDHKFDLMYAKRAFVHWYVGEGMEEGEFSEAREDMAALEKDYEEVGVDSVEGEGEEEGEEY
T1 sequence (P02554 whole entry partner, the tested form may be a part): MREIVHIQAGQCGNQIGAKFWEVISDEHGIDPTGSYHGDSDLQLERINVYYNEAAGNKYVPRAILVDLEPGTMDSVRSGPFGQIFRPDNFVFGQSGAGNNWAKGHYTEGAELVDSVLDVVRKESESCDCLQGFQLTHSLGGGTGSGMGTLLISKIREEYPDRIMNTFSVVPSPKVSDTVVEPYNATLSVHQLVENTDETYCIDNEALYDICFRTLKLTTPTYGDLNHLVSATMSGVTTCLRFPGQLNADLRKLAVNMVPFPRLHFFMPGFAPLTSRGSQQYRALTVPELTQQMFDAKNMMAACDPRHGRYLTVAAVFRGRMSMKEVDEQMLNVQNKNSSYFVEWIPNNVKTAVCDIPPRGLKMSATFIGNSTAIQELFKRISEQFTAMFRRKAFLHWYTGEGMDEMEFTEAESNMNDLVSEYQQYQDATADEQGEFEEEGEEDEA

SMILES | IC50 [1] [nM] | tolerability (body weight) ([2]; CAL-51 study, C9 100 mg/kg, C12 25 mg/kg IP daily) | body weight loss or changes in blood counts [2, 5] | tolerability [2, 5] | tolerability (body weight) ([2]; OVCAR-8 study, C9 50 or 100 mg/kg, C12 25 or 50 mg/kg IP daily) | sensitivity of the cell line compared with PARP inhibitor, paclitaxel, doxorubicin, carboplatin [3] | tumor growth inhibition (TGI) ([4]; 10 mg/kg PO QD, day 25 to day 47) [%] | tumor-free animals ([4]; 30 mg/kg PO QD) | tumor regression ([4]; 30 mg/kg PO QD, day 25 to day 47) [%] | tumor-free animals ([4]; 100 mg/kg PO QD) | tumor regression ([4]; 100 mg/kg PO QD, day 25 to day 47) [%]
CC(C)(C)NS(=O)(=O)c1cccc(NC(=O)c2ccc(S(=O)(=O)NC(C)(C)C)cc2N2CCC3(CC2)CC3)c1 [Compound C9, 4-(N-(tert-butyl)sulfamoyl)-N-(3-(N-(tert-butyl)sulfamoyl)phenyl)-2-(6-azaspiro[2.5]octan-6-yl)benzamide] | 232 | well-tolerated | no evidence of body weight loss or changes in blood counts | well-tolerated | well-tolerated | – | – | – | – | – | –
Cc1cc(NC(=O)c2ccc(NS(=O)(=O)CCO)cc2N2CCC3(CC2)CC3)nc(N2CCC(F)(F)CC2)n1 [Compound C14, N-(2-(4,4-Difluoropiperidin-1-yl)-6-methylpyrimidin-4-yl)-4-((2-hydroxyethyl)sulfonamido)-2-(6-azaspiro[2.5]octan-6-yl)benzamide] | – | – | – | – | – | greatest sensitivity | 57 | 4 of 10 | 86 | 8 of 10 | 98
